From patent US11173146B2, “Selective activators of the intermediate conductance CA2+activated K+ channel KCa3.1 and their methods of use” (The Regents of the University of California, priority 2014, dated 2021)
“Also recorded” adds a separate entry of the source.

How the values were obtained:
mKV3.1 = target: T1, mKV3.1 (Mus musculus, UniProt P15388); test: KV3.1 current inhibition (L929 cells); assay type: cell-based
T1 construct: expressed in transfected cells; host or cells: L929
Source text: (§1) Cells, Cell lines and Clones. HEK-293 cells stably expressing hKCa2.1, rKCa2.2 and hKCa3.1 were obtained from Khaled Houamed (University of Chicago, Ill.) in 2002 and have been maintained in the Wulff laboratory at the University of California since then. The cloning of hKCa2.3 (19 CAG repeats) and hKCa3.1 has been previously described (Wulff et al., 2000). The hKCa2.3 clone was later stably expressed in COS-7 cells at Aurora Biosciences Corp., San Diego, Calif. […]
(§2) Electrophysiology. […] For manual experiments COS-7, HEK-293 or L929 cells were trypsinized, plated onto poly-L-lysine coated coverslips and typically recorded from between 20 min and 4 h after plating. […] Free Ca^2+ concentrations were calculated with MaxChelator assuming a temperature of 25° C., a pH of 7.2 and an ionic strength of 160 mM. To reduce contaminating currents from native chloride channels in COS-7 cells, KCa2.3 currents were recorded with an internal pipette solution containing (in mM): 145 K^+ aspartate, 2 MgCl2, 10 HEPES, 10 EGTA and 7.4 CaCl2 (500 nM free Ca^2+), pH 7.2, 290-310 mOsm. […] KV2.1, Kv1.3, and KV3.1 currents were recorded in normal Ringer solution with a Ca^2+-free KF-based pipette solution as previously described (Schmitz et al., 2005). HERG (KV11.1) currents were recorded with a 2-step pulse from −80 mV first to 20 mV for 1 sec and then to −50 mV for 1 sec. […]

hNaV1.5 = target: T2, hNaV1.5 (Homo sapiens, UniProt Q14524); test: NaV1.5 current inhibition (HEK-293); assay type: cell-based; conditions: HEK293
T2 construct: host or cells: HEK-293

[1] = system: porcine coronary arteries; test: Isometric myography on porcine coronary arteries, bradykinin-induced EDH-type relaxation; conditions: compound 1 μM; for BK (1 μM)-induced relaxation potentiated to: U46619-precontracted, L-NNA and indomethacin
Source text: Isometric Myography on Porcine Coronary Arteries (PCA). PCA were carefully dissected from hearts kindly provided by the local abattoir (Mercazaragoza, Zaragoza, Spain), cleaned of fat and connective tissue, and cut into 3-4 mm rings. Rings were mounted on hooks connected to an isometric force transducer (Pioden UF1, Graham Bell House, Canterbury, UK) and were pre-stretched to an initial tension of 1 g. […] Changes in tension were registered using a Mac Lab System/8e program (AD Instruments Inc., Milford, Mass.). The buffer contained the NO-synthase blocker, Nω-nitro-L-arginine (L-NNA, 300 μM), and the cyclooxygenase blocker indomethacin (10 μM) in order to measure EDH-type relaxation. […] After washout, rings were contracted with a high KCl buffer (60 mM) to determine maximal contraction. […] UCL1684 and U46619 were purchased from Tocris (Wiesbaden-Nordenstadt, Germany). Data analysis: EDH-type relaxations were determined as % change of U46619 contraction and are shown relative to the totally relaxed state (w/o U46619).

[2] = Plasma protein binding by ultrafiltration; assay type: in vitro ADME; conditions: rat plasma, 10 μM compound
Procedure: Rat plasma (500 μl) was spiked with 10 μM of compound in 1% dimethylsulfoxide and the sample loaded onto a Microcon YM-30 Centrifugal Filter (Millipore Corp., Bedford, Mass., USA) and centrifuged at 13,500 g for 30 minutes at room temperature. The retentate was collected by inverting the filter into an Eppendorf tube and spinning at 13,500 g for 15 minutes.

[3] = system: L-NAME-treated moderately hypertensive mice; test: Telemetry in L-NAME-treated hypertensive mice; assay type: in vivo, mouse
Procedure: Telemetry. […] Maximal injection volume was ≤600 μl. […] Data were analyzed using the DSI software.
In contrast, SKA-121 at 100 mg/kg produced a significant drop in MAP by ˜25 mm Hg over 6 h.

wild-type mice = test: Telemetry of blood pressure and heart rate in wild-type mice; assay type: in vivo; conditions: for mean arterial blood pressure: FIG. 6A
Procedure: Telemetry. […] . […] . […] . […] . Maximal injection volume was ≤600 μl. […] . […] Data were analyzed using the DSI software.
. […] . The blood pressure drop was accompanied by a severe reduction of heart rate (HR) by ˜400 bpm (FIG. 6A left). To avoid fatal hypothermia or circulatory collapse, we handled these severely bradycardic mice for ˜2 h and increased RT to 34° C. As shown in FIG. 6A these maneuvers increased MAP transiently, presumably because of a sympathetic input on total peripheral resistance, but not HR and the low HR persisted over another 10 h before the mice slowly recovered (FIG. 6A left). […] However, this drop was more transient and lasted for ˜3 h.

KV11.1 (hERG) = target: T3, KV11.1 (hERG) (Homo sapiens, UniProt Q12809); test: KV11.1 (hERG) current inhibition (HEK-293); assay type: cell-based
T3 construct: host or cells: HEK-293
T3 sequence (Q12809 whole entry): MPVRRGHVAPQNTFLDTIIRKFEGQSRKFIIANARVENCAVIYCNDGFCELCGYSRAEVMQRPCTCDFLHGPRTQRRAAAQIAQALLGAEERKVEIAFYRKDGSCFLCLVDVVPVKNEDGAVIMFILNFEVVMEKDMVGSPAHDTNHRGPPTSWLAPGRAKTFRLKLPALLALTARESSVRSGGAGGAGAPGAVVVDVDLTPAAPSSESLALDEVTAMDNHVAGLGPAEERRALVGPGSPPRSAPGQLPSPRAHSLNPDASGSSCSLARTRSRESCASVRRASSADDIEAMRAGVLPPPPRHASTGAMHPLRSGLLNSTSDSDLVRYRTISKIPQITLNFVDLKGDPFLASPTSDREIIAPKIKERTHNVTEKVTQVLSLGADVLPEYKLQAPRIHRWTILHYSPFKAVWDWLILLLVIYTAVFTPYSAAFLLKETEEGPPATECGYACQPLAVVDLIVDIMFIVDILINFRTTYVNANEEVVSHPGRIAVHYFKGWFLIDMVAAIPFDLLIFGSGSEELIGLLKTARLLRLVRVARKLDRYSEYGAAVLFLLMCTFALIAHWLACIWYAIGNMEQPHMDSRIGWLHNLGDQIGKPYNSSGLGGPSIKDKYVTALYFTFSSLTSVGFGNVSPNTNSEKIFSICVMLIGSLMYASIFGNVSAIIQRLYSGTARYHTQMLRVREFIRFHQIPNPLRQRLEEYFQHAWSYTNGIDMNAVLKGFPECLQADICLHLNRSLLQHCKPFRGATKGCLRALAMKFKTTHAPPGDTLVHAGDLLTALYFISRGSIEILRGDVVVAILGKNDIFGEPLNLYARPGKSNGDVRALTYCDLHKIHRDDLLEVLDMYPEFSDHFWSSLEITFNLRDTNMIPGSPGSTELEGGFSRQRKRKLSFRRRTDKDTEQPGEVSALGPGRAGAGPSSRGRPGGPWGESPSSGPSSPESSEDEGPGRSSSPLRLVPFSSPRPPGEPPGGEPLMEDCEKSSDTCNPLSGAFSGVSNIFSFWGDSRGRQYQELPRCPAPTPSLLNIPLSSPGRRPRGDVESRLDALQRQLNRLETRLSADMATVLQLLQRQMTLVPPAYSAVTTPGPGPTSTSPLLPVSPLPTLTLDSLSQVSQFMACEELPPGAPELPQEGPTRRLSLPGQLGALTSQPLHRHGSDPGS
Source text: as §1, §2

hNaV1.7 = target: T4, hNaV1.7 (Homo sapiens, UniProt Q15858); test: NaV1.7 current inhibition (CHO cells); assay type: cell-based
T4 construct: host or cells: CHO (division arrested)
T4 sequence (Q15858 whole entry): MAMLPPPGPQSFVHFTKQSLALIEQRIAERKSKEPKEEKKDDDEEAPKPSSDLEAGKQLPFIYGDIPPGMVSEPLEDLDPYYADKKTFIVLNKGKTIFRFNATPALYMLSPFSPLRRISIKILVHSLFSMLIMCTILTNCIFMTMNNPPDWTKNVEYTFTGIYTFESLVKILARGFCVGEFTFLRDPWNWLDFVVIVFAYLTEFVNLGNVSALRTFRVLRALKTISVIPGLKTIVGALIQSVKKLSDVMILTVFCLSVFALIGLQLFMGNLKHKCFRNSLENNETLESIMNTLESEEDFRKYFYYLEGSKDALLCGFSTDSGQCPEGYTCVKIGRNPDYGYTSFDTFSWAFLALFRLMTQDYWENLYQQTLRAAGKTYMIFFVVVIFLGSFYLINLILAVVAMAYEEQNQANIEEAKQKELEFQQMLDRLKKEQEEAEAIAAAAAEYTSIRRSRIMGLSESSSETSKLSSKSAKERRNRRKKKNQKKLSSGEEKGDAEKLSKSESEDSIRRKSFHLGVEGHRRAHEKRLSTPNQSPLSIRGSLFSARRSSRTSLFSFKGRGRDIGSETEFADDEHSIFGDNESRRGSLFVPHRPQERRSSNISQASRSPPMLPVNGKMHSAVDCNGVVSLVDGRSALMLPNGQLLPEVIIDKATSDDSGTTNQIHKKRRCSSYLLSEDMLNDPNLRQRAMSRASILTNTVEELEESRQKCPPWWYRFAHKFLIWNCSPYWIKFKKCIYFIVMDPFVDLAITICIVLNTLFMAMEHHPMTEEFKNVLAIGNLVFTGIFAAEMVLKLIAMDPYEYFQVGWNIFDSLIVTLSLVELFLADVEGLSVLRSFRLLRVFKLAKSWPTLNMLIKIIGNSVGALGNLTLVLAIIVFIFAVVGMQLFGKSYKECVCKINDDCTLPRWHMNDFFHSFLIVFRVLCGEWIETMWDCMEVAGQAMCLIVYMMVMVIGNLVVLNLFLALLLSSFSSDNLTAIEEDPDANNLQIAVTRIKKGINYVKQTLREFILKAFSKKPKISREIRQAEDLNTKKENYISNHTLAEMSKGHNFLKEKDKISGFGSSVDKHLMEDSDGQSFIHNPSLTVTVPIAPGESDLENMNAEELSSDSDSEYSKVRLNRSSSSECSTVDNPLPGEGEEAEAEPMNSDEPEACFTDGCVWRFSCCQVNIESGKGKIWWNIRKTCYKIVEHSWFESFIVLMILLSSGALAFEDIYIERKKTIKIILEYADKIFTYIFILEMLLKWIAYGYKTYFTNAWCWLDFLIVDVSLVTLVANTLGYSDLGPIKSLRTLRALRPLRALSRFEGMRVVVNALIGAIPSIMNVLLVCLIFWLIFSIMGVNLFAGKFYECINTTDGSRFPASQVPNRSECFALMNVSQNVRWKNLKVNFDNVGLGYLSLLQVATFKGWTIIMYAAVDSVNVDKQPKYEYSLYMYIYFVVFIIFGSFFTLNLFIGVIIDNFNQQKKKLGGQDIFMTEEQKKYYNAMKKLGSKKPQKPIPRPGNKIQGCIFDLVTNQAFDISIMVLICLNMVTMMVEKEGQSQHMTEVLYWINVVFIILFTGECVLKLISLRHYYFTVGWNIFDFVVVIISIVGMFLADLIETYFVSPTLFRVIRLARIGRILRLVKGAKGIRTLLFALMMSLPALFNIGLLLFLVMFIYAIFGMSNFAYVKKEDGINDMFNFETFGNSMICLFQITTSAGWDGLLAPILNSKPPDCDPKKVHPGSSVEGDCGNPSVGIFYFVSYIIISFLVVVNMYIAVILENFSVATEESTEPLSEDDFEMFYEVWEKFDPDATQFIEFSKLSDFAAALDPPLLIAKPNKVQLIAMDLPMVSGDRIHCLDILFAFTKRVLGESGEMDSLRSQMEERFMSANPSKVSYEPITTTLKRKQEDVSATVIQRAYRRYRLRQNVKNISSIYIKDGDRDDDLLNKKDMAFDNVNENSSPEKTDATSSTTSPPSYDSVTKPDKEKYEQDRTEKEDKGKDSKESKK

T1 sequence (P15388 whole entry): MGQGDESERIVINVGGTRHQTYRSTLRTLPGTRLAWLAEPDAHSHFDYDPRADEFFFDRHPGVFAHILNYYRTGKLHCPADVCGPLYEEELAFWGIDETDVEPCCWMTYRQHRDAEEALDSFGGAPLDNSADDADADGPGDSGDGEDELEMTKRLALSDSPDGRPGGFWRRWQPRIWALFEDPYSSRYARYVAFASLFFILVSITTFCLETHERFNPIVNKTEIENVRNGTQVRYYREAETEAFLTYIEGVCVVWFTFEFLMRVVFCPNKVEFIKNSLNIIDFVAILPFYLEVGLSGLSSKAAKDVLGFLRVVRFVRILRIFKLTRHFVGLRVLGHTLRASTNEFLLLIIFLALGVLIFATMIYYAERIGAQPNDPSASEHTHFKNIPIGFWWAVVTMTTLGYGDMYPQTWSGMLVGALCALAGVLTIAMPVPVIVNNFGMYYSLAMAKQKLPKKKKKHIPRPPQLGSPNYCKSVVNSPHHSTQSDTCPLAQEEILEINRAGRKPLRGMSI

## Cc1cc2nc(N)oc2c2ccccc12 [SKA-121, 5-Methylnaphtho[2,1-d]oxazol-2-amine]
mKV3.1; at 50 μM
  inhibition at 50 µM: 46.3 ± 16.5%
hNaV1.5; at 50 μM
  inhibition at 50 µM: 32.1 ± 11.1%
[1]
  bradykinin-induced EDH-type relaxation: increased
  BK (1 μM)-induced relaxation potentiated to: ≈ 300%
[2]
  fraction unbound at 30 min, 10 μM: 0.19
[3]; 100 mg/kg i.p.
  HR: remained virtually stable; also recorded: minor decrease
  drop in MAP: ~25 mm Hg
  duration of MAP drop: 6 h
[3]; 100 mg/kg i.p., FIG. 6B
  blood pressure: reduced blood pressure
wild-type mice; 30 mg/kg i.p.
  MAP: Neither SKA-111 nor SKA-121 caused significant changes; also recorded: did not produce significant alterations
wild-type mice; 100 mg/kg i.p.
  drop in mean arterial blood pressure (MAP): ~20 mmHg
  duration of MAP drop: ~3 h
  heart rate: not and only moderately reduced
  mean arterial blood pressure: reduced mean arterial blood pressure
KV11.1 (hERG); at 50 μM
  KV11.1 (hERG) % current inhibition: 16.7 ± 9.7%
hNaV1.7; at 50 μM
  inhibition at 50 µM: 28.5 ± 1.8%

## Cc1cc2sc(N)nc2c2ccccc12 [SKA-111, 5-methylnaphtho[1,2-d]thiazol-2-amine]
mKV3.1; at 25 μM
  inhibition at 25 µM: 32.9 ± 1.3%
hNaV1.5; at 25 μM
  inhibition at 25 µM: 39.9 ± 11.1%
[1]
  bradykinin-induced EDH-type relaxation: increased
  BK (1 μM)-induced relaxation potentiated to: ≈ 200%
[2]
  fraction unbound at 30 min, 10 μM: 0.41
[3]; 60 mg/kg i.p.
  HR: remained virtually stable; also recorded: only a minor drop
  MAP: reduced blood pressure; also recorded: only a minor drop
wild-type mice; 30 mg/kg i.p.
  MAP: Neither SKA-111 nor SKA-121 caused significant changes; also recorded: did not produce significant alterations
  change of HR: ~−50 bpm
  duration of HR decrease after injection: ~2 h
wild-type mice; 30 mg/kg i.p., 2 h after injection
  heart rate: moderately reduced heart rate
wild-type mice; 100 mg/kg i.p.
  drop in mean arterial blood pressure (MAP): ~25 mmHg
  heart rate: severely reduced heart rate
  reduction of heart rate (HR): ~400 bpm
  mean arterial blood pressure: reduced mean arterial blood pressure
KV11.1 (hERG); at 25 μM
  KV11.1 (hERG) % current inhibition: 10.1 ± 7.7%
hNaV1.7; at 25 μM
  inhibition at 25 µM: 27.5 ± 0.9%
